Structures are written as SMILES. Active and inactive are the calls of the source.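 How the source made its calls: active means inhibition of 30% or more at 50 µM; inactive means inhibition under 30% at 50 µM.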

The target of this assay is Serine/threonine-protein phosphatase 5 (Homo sapiens) (UniProt P53041). In words: PP5 phosphatase inhibitors, OMFP cleavage, confirmation, biochemical, fluorescence, round 5, powder samples (AID 624434). The settings on record: purified PP5c, OMFP dephosphorylation, at 50 µM, active compounds read high.
Sequence of Serine/threonine-protein phosphatase 5 (Homo sapiens) (P53041 whole entry, looked up): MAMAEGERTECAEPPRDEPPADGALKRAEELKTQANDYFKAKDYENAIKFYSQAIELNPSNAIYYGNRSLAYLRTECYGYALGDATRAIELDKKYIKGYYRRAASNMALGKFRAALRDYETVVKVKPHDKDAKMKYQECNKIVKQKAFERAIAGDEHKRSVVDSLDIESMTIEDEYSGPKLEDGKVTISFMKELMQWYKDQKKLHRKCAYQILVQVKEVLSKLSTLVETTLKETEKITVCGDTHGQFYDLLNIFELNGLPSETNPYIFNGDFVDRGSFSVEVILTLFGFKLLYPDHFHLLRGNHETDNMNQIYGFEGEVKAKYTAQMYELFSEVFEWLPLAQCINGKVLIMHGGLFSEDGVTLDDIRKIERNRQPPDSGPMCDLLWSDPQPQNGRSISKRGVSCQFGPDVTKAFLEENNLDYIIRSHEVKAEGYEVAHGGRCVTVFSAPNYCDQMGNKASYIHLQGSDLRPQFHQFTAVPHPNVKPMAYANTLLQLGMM
Regarding `COc1cccc(-c2n[nH]nc2C(=O)O)c1`, the inhibition was 77.6%. With `NC(=O)c1n[nH]nc1-c1ccccc1` the figure was 5.21% (inactive); with `O=C(O)c1cnn(-c2ccccc2)n1`, 3.79% (inactive); with `CCc1ccccc1-c1n[nH]nc1C(=O)O`, 62.5%.

Regarding `O=C(O)c1n[nH]nc1-c1ccccc1F`, the inhibition is 81.1%. With `O=C(O)c1n[nH]nc1-c1cccc(F)c1` the figure was 70.5%; with `CNC(=O)c1n[nH]nc1-c1ccccc1`, -1.73% (inactive). With `O=C(O)c1n[nH]nc1-c1ccccc1-c1ccccc1` the figure was 52.6%; with `O=C(O)c1n[nH]nc1-c1ccccn1`, 46.8%.

Turning to `COc1ccc(-c2n[nH]nc2C(=O)O)cc1`, the inhibition was 70%.

Turning to `CC(C)c1ccccc1-c1n[nH]nc1C(=O)O`, the inhibition is 47.4%.

Regarding `CN(C)C(=O)c1n[nH]nc1-c1ccccc1`, the inhibition is 0.413% (inactive). With `O=C(O)c1n[nH]nc1-c1ccc(F)cc1` the figure was 66.5%; with `O=C(O)c1n[nH]nc1Br`, 10.6% (inactive). With `CC(C)Oc1ccccc1-c1n[nH]nc1C(=O)O` the figure was 84.9%; with `Cc1ccccc1-c1n[nH]nc1C(=O)O`, 69.3%. With `O=C(O)c1n[nH]nc1C(=O)O` the figure was 12.4% (inactive). Take `O=C(O)c1n[nH]nc1-c1ccccc1O`: the inhibition is 81.9%. With `O=C(O)c1n[nH]nc1-c1cccnc1` the figure was 4.32% (inactive). With `N#Cc1n[nH]nc1-c1ccccc1` the figure was 2.79% (inactive); with `c1ccc(-c2n[nH]nc2-c2nn[nH]n2)cc1`, 1.15% (inactive); with `O=C(O)c1[nH]ccc1-c1ccccc1`, 13.8% (inactive).

`O=Cc1n[nH]nc1-c1ccccc1`: the inhibition was 1.47% (inactive).

For the compound `CCOc1ccccc1-c1n[nH]nc1C(=O)O`, the inhibition was 85.6%. Take `COc1ccccc1-c1n[nH]nc1C(=O)O`: the inhibition was 83.4%.

Source of the values: PubChem BioAssay AID624434 (The Scripps Research Institute Molecular Screening Center, 2012).
